Counter-ions that a name gives are not always drawn. Like-named read-outs stand apart in the source and are kept apart here. {AF594} = Alexa Fluor 594 dye
Tests used:
CLas [1] = assay type: in vivo, Candidatus Liberibacter asiaticus; settings: for effect on quantity of the bacterium (Liberibacter titer) in infected Citrus trees: FANA 5 μM, streptomycin sulfate 5 mg/mL, sampling 2, 7, 14, 30 days (FIG. 5); for Liberibacter repression (percent change in CLas titer): CLas-infected Citrus trees, root infusion 5 mL of 5 μM
CLso [2] = assay type: in vivo, Candidatus Liberibacter solanacearum; settings: CLso infected potato, soil applied drench, one gallon pots (FIG. 8); infected untreated control ave. 39, uninfected healthy 66 cm
CLso [3] = assay type: in vivo, Candidatus Liberibacter solanacearum; settings: for foliar disease symptoms (foliar symptom ranking) / products with the greatest foliar symptom reduction: 8 week trial; for foliar disease symptoms (foliar symptom ranking): soil application (FIG. 11B); for products with the greatest foliar symptom reduction: comparison among all products (FIG. 11B); for tuber disease symptoms (proportion of symptomatic tubers) compared to CLso infected Control tubers: 8 week trial (FIG. 11C)
wDi gyrA gene = assay type: cell-based, Wolbachia-Diaphorina
CLas LigA gene = assay type: in vivo, Candidatus Liberibacter asiaticus
CLas [4] = assay type: in vivo, Candidatus Liberibacter asiaticus
CLas [5] = assay type: in vivo, Candidatus Liberibacter asiaticus; remark: listed apart in the source
D. citri adults = system: D. citri adults; set-up: species or system Diaphorina citri; settings: in vivo

With `[H]/N=C(/N)N[C@H]1[C@H](O)[C@@H](O)[C@H](O[C@@H]2O[C@@H](C)[C@](O)(C=O)[C@H]2O[C@@H]2O[C@@H](CO)[C@H](O)[C@@H](O)[C@@H]2NC)[C@@H](N/C(N)=N\[H])[C@@H]1O` [streptomycin sulfate, reference compound] the “effect on quantity of the bacterium (Liberibacter titer) in infected Citrus trees” value (CLas [1]; root infusion) was “did not significantly reduced”.

“AATAAACGCAATGACCAATCC (FANA modification, further chemistry not given here) [CLso-1 GyrA-Ext-1, FANA ASO, CLso Gyrase-A]” was tested, and the “plant growth, average height” value (CLso [2]) was 51 centimeters and the “foliar disease symptoms (foliar symptom ranking)” value (“foliar disease symptoms” below) (CLso [3]) was “significantly reduced”.

For “ATAACCTTGACGATCTGATTC (FANA modification, further chemistry not given here) [CLso-2 Gyr-Ext-2, FANA ASO, CLso Gyrase-A]”, the “plant growth, average height” value (CLso [2]) was 51 centimeters, the “products with the greatest foliar symptom reduction” value (CLso [3]) was “most symptom reduction” and the “foliar disease symptoms” value (CLso [3]) was “significantly reduced”.

For “AUAUCCTTGTCGTATCCCAGU (FANA modification, further chemistry not given here) [scramble control FANA, reference compound]”, the “expression of the wDi gyrA gene versus untreated cells” value (wDi gyrA gene) was “No significant difference”, the “amount of CLas LygA mRNA versus untreated psyllids” value (CLas LigA gene; in vivo) was “no significant difference” and the “CLas density (copy number) in psyllids” value (CLas [4]; in vivo) was “No difference”. For the same molecule, the “number of viable wDi cells (wDi copy number, PMA-qPCR)” value (wDi cells) was “high wDi copy number” and the “toxicity of the FANA chemistry to the bacterial cells or the Drosophila S2 cells” value (wDi cells) was “not toxic”.

For “CAAATCAGGTATAGCACGGCC (FANA modification, further chemistry not given here) [CLso-2Gyr, FANA ASO, CLso Gyrase A]”, the “foliar disease symptoms” value (CLso [3]) was “significantly reduced”.

In the case of “CATTTTGTATATGCGAGGACA (FANA modification, further chemistry not given here) [CLsoDNAB-4, FANA ASO, CLso DnaB-Helicase C]”, the “tuber disease symptoms (proportion of symptomatic tubers) compared to CLso infected Control tubers” value (CLso [3]) is reported as “significantly reduced” and the “foliar disease symptoms” value (CLso [3]) is reported as “significantly reduced”.

“CGATTAAAAGCTTGTCCAGCC (FANA modification, further chemistry not given here) [CLsoDNAB-3, FANA ASO, CLso DnaB-Helicase C]” was tested, and the “foliar disease symptoms” value (CLso [3]) was “significantly reduced”.

In the case of “CGGCACAGCAATTAGAACGTC (FANA modification, further chemistry not given here) [LigA-FANA, FANA antisense oligo designed to target the CLas NAD-dependent DNA Ligase A gene]”, the “decrease of expression of the bacterial target gene (CLas LigA) compared to untreated psyllids” value (CLas LigA gene; D. citri adults fed on excised Citrus leaves that took up 5 μM FANA solution, seven days, qRT-PCR (FIG. 2B)) is reported as 75%, the “CLas LigA transcript level compared to insects treated with the scramble control” value (CLas LigA gene; D. citri adults, 5 μM via leaves, seven days, p=0.009) is reported as “significantly lower” and the “CLas density (copy number) in psyllids” value (CLas [4]; D. citri adults, artificial diet 5 μM, seven days post-treatment, qPCR of 16S rRNA gene (FIG. 4), versus untreated psyllids) is reported as “significantly lower”. For the same molecule, the “Liberibacter repression (percent change in CLas titer)” value (CLas [1]; seven days post treatment (FIG. 5)) was 51.6%, the “Liberibacter repression (percent change in CLas titer)” value (CLas [1]; two days post treatment (FIG. 5)) was 81% and the “persistence of the suppression effect” value (CLas [1]; root infusion, sampling period) was 30 days. The “effect on quantity of the bacterium (Liberibacter titer) in infected Citrus trees” value (CLas [1]; root infusion) was “significantly reduced”, the “success of treated psyllids in transmitting the pathogen into citrus plants compared to untreated insects” value (CLas [5]; psyllids treated seven days, 15 days inoculation access on Citrus macrophylla seedlings, p=0.018) was “less successful in transmitting the pathogen” and the “CLas copy number detected in the citrus plants exposed to the treated psyllids” value (CLas [5]; seedlings sampled three months later (FIG. 7)) was “significantly lower”.

In the case of “GAAGAACGGGCGAACTTTTTG (chemistry not given here) [L. solanacearum CLso2 -GyrA host Potato]”, the “plant growth, average height” value (CLso [2]) is reported as 51 centimeters and the “foliar disease symptoms” value (CLso [3]) is reported as “significantly reduced”.

In the case of “GATTGAAGGGCAGGGGAATTC (chemistry not given here)”, the “foliar disease symptoms” value (CLso [3]) is reported as “significantly reduced”.

With “GCATCATTATTCACTAGGATAG (FANA modification, further chemistry not given here) [CLsoDNAB-1, FANA ASO, CLso DnaB-Helicase C]” the “products with the greatest foliar symptom reduction” value (CLso [3]) was “most symptom reduction” and the “foliar disease symptoms” value (CLso [3]) was “significantly reduced”.

For “GGGAATATTCGTCGCCATACC (FANA modification, further chemistry not given here) [CLso-4Gyr, FANA ASO, CLso Gyrase A]”, the “foliar disease symptoms” value (CLso [3]) was “significantly reduced”.

For “TAGTTCCGATTTGTATGCATC (FANA modification, further chemistry not given here) [CLsoDnaB-6, FANA ASO, CLso DnaB-Helicase C]”, the “foliar disease symptoms” value (CLso [3]) was “significantly reduced”.

With “TATGGAAACAGCCTCAGATGC (FANA modification, further chemistry not given here) [CLsoDNAB-2, FANA ASO, CLso DnaB-Helicase C]” the “tuber disease symptoms (proportion of symptomatic tubers) compared to CLso infected Control tubers” value (CLso [3]) was “significantly reduced” and the “foliar disease symptoms” value (CLso [3]) was “significantly reduced”.

With “TATTACGATAGATCCTCGACC (FANA modification, further chemistry not given here) [CLso-2Gyr-Ext-3, FANA ASO, CLso Gyrase A]” the “foliar disease symptoms” value (CLso [3]) was “significantly reduced”.

In the case of “TGGTATGGCAACCAATATTCC (FANA modification, further chemistry not given here) [gyrA-FANA]”, the “reduction in the amount of the target mRNA (wDi gyrA) compared to untreated cells” value (wDi gyrA gene; S2-wDi cells, 5 μM, seven days post-treatment, qRT-PCR (FIG. 2A)) is reported as 30%, the “wDi gyrA transcript level compared to cells treated with the scramble control” value (wDi gyrA gene; S2-wDi cells, 5 μM, seven days, p=0.009) is reported as “significantly lower” and the “number of viable wDi cells (wDi copy number, PMA-qPCR)” value (wDi cells; isolated wDi cells, 5 μM, four days, versus untreated or scramble control (FIG. 3)) is reported as “greatly reduced”.

With “TGTATATGCGAGGACATCGTC (FANA modification, further chemistry not given here) [CLso-DnaB-7, FANA ASO, CLso DnaB-Helicase C]” the “foliar disease symptoms” value (CLso [3]) was “significantly reduced”.

With “TTCTATCAGGGTAAATCGCTC (FANA modification, further chemistry not given here) [CLso-2 Gyr-Ext-4, FANA ASO, CLso Gyrase-A]” the “plant growth, average height” value (CLso [2]) was 51 centimeters, the “tuber disease symptoms (proportion of symptomatic tubers) compared to CLso infected Control tubers” value (CLso [3]) was “significantly reduced” and the “foliar disease symptoms” value (CLso [3]) was “significantly reduced”.

In the case of “TTGTCCAGCCATATCAATAGC (FANA modification, further chemistry not given here) [CLsoDnaB-5, FANA ASO, CLso DnaB-Helicase C]”, the “foliar disease symptoms” value (CLso [3]) is reported as “significantly reduced”.

With “fluorophore-tagged FANA oligo control: FANA ASO with scramble sequence [SEQ ID NO: 1 and SEQ ID NO: 2] tagged with Alexa Fluor 594 at its 5′ end (chain 1 ACTGGGATACGACAAGGATAT; chain 2 TCTTGGAACAGCATAGGGACA; 5' {AF594}, sugars by position and backbone not given here; FANA ASO)” the “localization of the oligo in psyllid alimentary canal” value (D. citri adults) was “detected mainly in the psyllid esophagus, filter chamber and anterior midgut”.

Reference: US20250027079A1 (priority 2020, published 2025)
